What was measured:
[1] = biological target: T1, SmCHS2 (chitin synthase 2) (Saprolegnia monoica, UniProt D7NQS9); assay: radiometric chitin synthase assay ([…]-UDP-GlcNAc) on CHAPS membrane extract of recombinant Pichia; Dixon plots; type: biochemical
T1 construct: full-length SmCHS2 (962 amino acids) fused to eGFP at its C-terminus, expressed in Pichia pastoris, CHAPS extract of membranes
T1 sequence (D7NQS9 1-962): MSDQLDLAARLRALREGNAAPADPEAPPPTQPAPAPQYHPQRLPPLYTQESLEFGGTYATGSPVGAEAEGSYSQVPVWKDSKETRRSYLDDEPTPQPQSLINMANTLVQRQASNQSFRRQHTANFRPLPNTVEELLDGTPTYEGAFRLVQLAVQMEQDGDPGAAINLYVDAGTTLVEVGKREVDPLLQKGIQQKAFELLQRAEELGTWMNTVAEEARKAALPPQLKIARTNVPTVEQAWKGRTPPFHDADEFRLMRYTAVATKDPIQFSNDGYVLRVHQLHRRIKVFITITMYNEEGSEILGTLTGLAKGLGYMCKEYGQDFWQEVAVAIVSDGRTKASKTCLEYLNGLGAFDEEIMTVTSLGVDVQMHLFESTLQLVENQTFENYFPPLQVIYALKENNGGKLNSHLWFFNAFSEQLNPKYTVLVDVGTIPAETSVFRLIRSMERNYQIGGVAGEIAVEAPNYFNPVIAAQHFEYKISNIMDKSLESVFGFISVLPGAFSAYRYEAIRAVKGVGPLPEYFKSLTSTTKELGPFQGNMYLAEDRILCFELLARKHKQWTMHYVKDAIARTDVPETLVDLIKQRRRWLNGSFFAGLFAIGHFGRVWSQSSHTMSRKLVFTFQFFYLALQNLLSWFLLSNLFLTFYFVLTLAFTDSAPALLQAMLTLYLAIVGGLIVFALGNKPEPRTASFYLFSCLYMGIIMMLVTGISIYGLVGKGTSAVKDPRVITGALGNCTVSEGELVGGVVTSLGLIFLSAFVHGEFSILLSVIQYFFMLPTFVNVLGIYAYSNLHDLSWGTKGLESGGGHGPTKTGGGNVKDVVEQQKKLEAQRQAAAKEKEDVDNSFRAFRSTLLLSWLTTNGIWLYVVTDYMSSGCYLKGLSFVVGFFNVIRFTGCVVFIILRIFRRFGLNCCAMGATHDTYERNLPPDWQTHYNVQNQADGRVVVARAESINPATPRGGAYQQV

[2] = substrate: CC(=O)N[C@H]1[C@@H](OP(=O)(O)OP(=O)(O)OC[C@H]2O[C@@H](n3ccc(=O)[nH]c3=O)[C@H](O)[C@@H]2O)O[C@H](CO)[C@@H](O)[C@@H]1O; assay: radiometric chitin synthase assay on CHAPS membrane extract of recombinant Pichia; apparent Km; type: biochemical, Saprolegnia monoica

Row | Molecule | Ki [1] | Km [2]
1 | C[C@@H]([C@H](N)C(=O)N[C@H](C(=O)O)[C@H]1O[C@@H](n2ccc(=O)[nH]c2=O)[C@H](O)[C@@H]1O)[C@H](O)c1ccc(O)cn1 [nikkomycin Z] | 4.6 µM | –
2 | SmCHS2 (chitin synthase 2) (Saprolegnia monoica) (protein, full-length SmCHS2 (962 amino acids) fused to eGFP at its C-terminus, expressed in Pichia pastoris, CHAPS extract of membranes) MSDQLDLAARLRALREGNAAPADPEAPPPTQPAPAPQYHPQRLPPLYTQESLEFGGTYATGSPVGAEAEGSYSQVPVWKDSKETRRSYLDDEPTPQPQSLINMANTLVQRQASNQSFRRQHTANFRPLPNTVEELLDGTPTYEGAFRLVQLAVQMEQDGDPGAAINLYVDAGTTLVEVGKREVDPLLQKGIQQKAFELLQRAEELGTWMNTVAEEARKAALPPQLKIARTNVPTVEQAWKGRTPPFHDADEFRLMRYTAVATKDPIQFSNDGYVLRVHQLHRRIKVFITITMYNEEGSEILGTLTGLAKGLGYMCKEYGQDFWQEVAVAIVSDGRTKASKTCLEYLNGLGAFDEEIMTVTSLGVDVQMHLFESTLQLVENQTFENYFPPLQVIYALKENNGGKLNSHLWFFNAFSEQLNPKYTVLVDVGTIPAETSVFRLIRSMERNYQIGGVAGEIAVEAPNYFNPVIAAQHFEYKISNIMDKSLESVFGFISVLPGAFSAYRYEAIRAVKGVGPLPEYFKSLTSTTKELGPFQGNMYLAEDRILCFELLARKHKQWTMHYVKDAIARTDVPETLVDLIKQRRRWLNGSFFAGLFAIGHFGRVWSQSSHTMSRKLVFTFQFFYLALQNLLSWFLLSNLFLTFYFVLTLAFTDSAPALLQAMLTLYLAIVGGLIVFALGNKPEPRTASFYLFSCLYMGIIMMLVTGISIYGLVGKGTSAVKDPRVITGALGNCTVSEGELVGGVVTSLGLIFLSAFVHGEFSILLSVIQYFFMLPTFVNVLGIYAYSNLHDLSWGTKGLESGGGHGPTKTGGGNVKDVVEQQKKLEAQRQAAAKEKEDVDNSFRAFRSTLLLSWLTTNGIWLYVVTDYMSSGCYLKGLSFVVGFFNVIRFTGCVVFIILRIFRRFGLNCCAMGATHDTYERNLPPDWQTHYNVQNQADGRVVVARAESINPATPRGGAYQQV | – | 150+12 µM
